Measurements as given in patent US11945825B2, “Compositions and methods for regulating glucose homeostasis and insulin action” (UNIVERSITY OF VIRGINIA PATENT FOUNDATION, priority 2012, dated 2024).

What was measured:
[1] = patients consuming ˜300 mg/d, over several months, no change in food intake; cited from earlier work
[2] = mouse, in vivo; cited from earlier work
L6 myoblasts [3] = experiment: Oxygen consumption rate dose response (Seahorse XF24); type: cell-based, rat
[4] = system: AMP-activated protein kinase; conditions: L6 cells, 40 min
L6 myoblasts [5] = conditions: 1 μM uncoupler, 1 μM oligomycin
[6] = system: isolated mouse liver mitochondria; conditions: 5 μM
L6 cells [7] = system: L6 cells
L6 myotubes = conditions: 5 min treatment
L6 cells [8] = conditions: 20 μM, 20 min

Row | SMILES | average weight loss [1] | metabolic effects in mice [2] | shape of oxygen consumption dose response curve (L6 myoblasts [3]) | AMPK activation [4] | respiration in the presence of oligomycin (L6 myoblasts [5]) | electron donation to the ETC ([6]; after 2 μM rotenone) | effect on complex II (succinate-stimulated respiration) ([6]; succinate added at 20 min) | plasma membrane potential (L6 cells [7]; current clamp, resting membrane potential, 10 μM) | current under voltage clamp (L6 cells [7]; holding potential −70 mV, 1 μM and 10 μM) | plasma membrane conductance (L6 cells [7]; voltage clamp, −130 mV to −60 mV) | intracellular acidification relative to BAM15 (L6 myotubes) | cellular ATP levels (L6 cells [8])
1 | O=[N+]([O-])c1ccc(O)c([N+](=O)[O-])c1 [DNP, 2,4-dinitrophenol] | 1.5 pounds per week | improved serological glucose, triglyceride, and insulin levels, as well as decreased oxidative damage, reduced body weight, and increased longevity | – | – | – | – | – | – | – | – | – | –
2 | N#CC(C#N)=NNc1ccc(OC(F)(F)F)cc1 [FCCP, carbonyl cyanide p-trifluoromethoxyphenylhydrazone] | – | – | inverted bell shaped curve of effectiveness | activation of AMP-activated protein kinase | increase oxygen consumption in the presence of oligomycin | do not donate electrons to the ETC downstream of complex I | do not affect complex II | reversible and repeatable plasma membrane depolarization | induced an inward current | increase in conductance | 2 fold | loss of cellular ATP
